From patent publication US8449930B2, “Drug or dermatological composition containing an avocado peptide extract for treating and preventing pruritus” (Laboratoires Expanscience, priority 2008, dated 2013) come the findings set out here.

Format in all cases: cell-based
In one experiment the test system is PAR-2. The experiment can be described thus: PAR-2 gene expression in reconstructed epidermises (cDNA arrays). The settings on record: 1 μM retinoic acid, 6 hours. As to the method:
Seventeen-day reconstructed epidermises (Skinethic) were treated systemically with 0.04% (w/v) avocado peptide extract (obtained in example 1) or 1 μM retinoic acid (Sigma, positive reference) for 6 hours.
Gene expression was analyzed using standard simplified DNA arrays. These microarrays involved spotting specific cDNA markers of interest on nylon membranes. Analysis was carried out according to a suitable miniaturized and optimized technology based on the use of messenger RNA and ^33P labeling.
When culturing was complete, the epidermises were rinsed with phosphate buffered saline (PBS) solution. The total RNA of the epidermises was then extracted and purified using TRI Reagent (Sigma) according to a standardized protocol. RNA quantity and quality were then evaluated using an Agilent 2100 bioanalyzer. The mRNA of each culture was reverse transcribed using oligo(dT) and a ^33P-labeled deoxyribonucleotide triphosphate. Multiple labeled cDNA “target” sequences were prepared for each culture. These targets were then hybridized, under optimized conditions, with cDNA “probes” in excess bound to membranes. After washing, the relative quantity of labeled target was measured by direct counting using a Phosphorlmager.
The membranes were analyzed using suitable software.

Experiment [1] concerns Normal human epidermal keratinocytes (NHEK). Description: Synthesis of GAGs by keratinocytes (35S-sulfate incorporation). The settings on record: 72 hours. As to the method: (§1) Normal human epidermal keratinocytes (NHEK) were pre-cultured for 24 hours at 37° C. and 5% CO2 in low-calcium (0.09 mM) SFM (Invitrogen) medium supplemented with 0.25 ng/ml EGF (Invitrogen), 25 μg/ml pituitary extract (Invitrogen) and 25 μg/ml gentamycin (Sigma).
(§2) The keratinocytes were then treated for 72 hours with the avocado peptide extract (0.05% DM and 0.005% DM), according to example 1, or by the references: 0.1 μM retinoic acid (Sigma) or 1.5 mM calcium (Prolabo). Two identical series were prepared in order to assay both the release/production of hyaluronic acid and the incorporation of […] in the GAGs fraction. The batch corresponding to the assay of the GAGs was supplemented with ^35S-sulfate (Amersham) after 48 hours of culture (labeling during the last 24 hours).
At the end of the treatment, in the batch corresponding to the assay of GAGs, the incorporated radioactivity was counted and thus the variation in the synthesis of GAGs in relation to the control was analyzed.
(§3) Intergroup comparisons were carried out by analysis of variance using Dunnett's multiple comparison test.

Experiment [2] shares this test system. The experiment can be described thus: Synthesis/release of hyaluronic acid by keratinocytes (ELISA). Particulars: 0.1 μM retinoic acid, 72 hours, culture supernatants. As for the experimental part:
as §1, §2
In the batch corresponding to the assay of hyaluronic acid, at the end of the treatment, the culture supernatants were collected and hyaluronic acid was assayed using a specific modified ELISA test (Biogenic).
as §3
In general terms: ELISA stands for enzyme-linked immunosorbent assay.

Experiment [3] deals with Rat peritoneal mast cells. The experiment can be described thus: Release of histamine by mast cells induced by substance P. As to the method: (§4) The studies presented below were carried out on rat peritoneal mast cells. These cells have the same features as cutaneous mast cells and thus constitute an experimental model representative of human skin.
Rat peritoneal mast cells (10,000 cells in suspension/250 μl Tyrode's buffer) were incubated for […] at 37° C. in the presence or absence of 0.05%, 0.5% and 1% (w/v) avocado peptide extract, obtained in example 1, or 10 mM calcium, used as the reference histamine release inhibitor.
The cells were then stimulated for 10 minutes by 10 μM substance P (Neosystem) in the presence of 0.3 mM calcium.
The reaction was quenched by centrifugation and the supernatants and cell pellets were taken up in 0.8 N perchloric acid in order to assay histamine using the spectrofluorometric method.
The quantities of histamine released were expressed as a percentage of release (quantity in supernatants/total quantity).

Experiment [4] concerns Rat peritoneal mast cells. Description: Release of tryptase by mast cells induced by calcium ionophore A23187. The settings on record: 50 μM quercetin. As to the method: as §4
Rat peritoneal mast cells (2×10^3 cells/ml) were incubated for 30 minutes at 37° C. in the presence or absence of 0.005% (w/v) avocado peptide extract (obtained in example 1) or 50 μM quercetin (Sigma), the reference tryptase release inhibitor. The cells were then stimulated for 15 minutes by 0.5 μM calcium ionophore A23187 (Millipore). The calcium ionophore is used to induce the release of tryptase (it induces an influx and mobilization of intracellular calcium). The reaction was quenched by centrifugation at 4° C.
Tryptase release was evaluated by assaying tryptase in the cell pellets and supernatants by means of the Mast Cell Degranulation Assay Kit (Millipore). This test is based on the spectrophotometric detection of the chromophore p-nitroaniline (pNA) after cleavage of the tosyl-gly-pro-lys-pNA substrate by tryptase.

Consider `CC1=C(/C=C/C(C)=C/C=C/C(C)=C/C(=O)O)C(C)(C)CCC1` [retinoic acid], for which the “PAR-2 (relative expression) Mean” value in the experiment with PAR-2 (systemic treatment) was found to be 3. For the same compound, the “Percentage inhibition of PAR-2 gene expression” value in the experiment on PAR-2 (vs control epidermises) was −29%. In addition, in experiment [1] (0.1 μM retinoic acid), the “Incorporation of 35S-sulfate (cpm)” value is 13217 cpm and the “Percentage (change in synthesis of GAGs vs control cells)” value is on record as “+18%”. For the same compound, the “HA” value in experiment [2] was 11503 ng/mL.

As for `[Ca+2]` [calcium], in experiment [3] (10 mM calcium (reference inhibitor), stimulated 10 min by 10 μM substance P), the “Histamine (% release) Mean” value stood at 16 % release. Also, the “Percentage inhibition of histamine release” value in experiment [3] (calcium, 10 μM in table 8, 10 mM in text, vs stimulated control (substance P)) is listed as −78%. The “Incorporation of 35S-sulfate (cpm)” value in experiment [1] (1.5 mM calcium) is reported as 17753 cpm.

One may read the inhibition as the share of the control response that was lost under treatment. As for `O=c1c(O)c(-c2ccc(O)c(O)c2)oc2cc(O)cc(O)c12` [quercetin], the “Tryptase (ng/ml) Mean” value in experiment [4] (30 min preincubation, stimulated 15 min by 0.5 μM calcium ionophore A23187) came to 44 ng/mL. In addition, in experiment [4] (Rattus norvegicus, Mast cell, vs stimulated control (Ca ionophore), read-out: Percentage inhibition of tryptase release), the inhibition at 50 µM was determined as 47%.
